pIC50: −log10 of the molar value.
Molecular target: human NaV 1.7 (Homo sapiens, UniProt Q15858)
Assay: E-VIPR optical membrane potential assay with electrical stimulation
Type: cell-based
Conditions: sodium channel inhibition; read-out: Binned Activity Data (IC50)
Text: Assays for Detecting and Measuring NaV Inhibition Properties of Compound E-VIPR Optical Membrane Potential Assay Method with Electrical Stimulation
Sodium channels are voltage-dependent proteins that can be activated by inducing membrane voltage changes by applying electric fields. The electrical stimulation instrument and methods of use are described in Ion Channel Assay Methods PCT/US01/21652, herein incorporated by reference and are referred to as E-VIPR. The instrument comprises a microtiter plate handler, an optical system for exciting the coumarin dye while simultaneously recording the coumarin and oxonol emissions, a waveform generator, a current- or voltage-controlled amplifier, and a device for inserting electrodes in well. Under integrated computer control, this instrument passes user-programmed electrical stimulus protocols to cells within the wells of the microtiter plate.
24 hours before the assay on E-VIPR, HEK cells expressing human NaV subtype, like NaV 1.7, are seeded in 384-well poly-lysine coated plates at 15,000-20,000 cells per well. Other subtypes are performed in an analogous mode in a cell line expressing the NaV of interest. HEK cells are grown in media (exact composition is specific to each cell type and NaV subtype) supplemented with 10% FBS (Fetal Bovine Serum, qualified; GibcoBRL #16140-071) and 1% Pen-Strep (Penicillin-Streptomycin; GibcoBRL #15140-122). Cells are grown in vented cap flasks, in 90% humidity and 10% CO2, to 100% confluence. They are usually split by trypsinization 1:10 or 1:20, depending on scheduling needs, and grown for 2-3 days before the next split.
Bath1 buffer. Glucose 10 mM (1.8 g/L), Magnesium Chloride (Anhydrous), 1 mM (0.095 g/L), Calcium Chloride, 2 mM (0.222 g/L), HEPES 10 mM (2.38 g/L), Potassium Chloride, 4.5 mM (0.335 g/L), Sodium Chloride 160 mM (9.35 g/L).
Hexyl Dye Solution: Bath1 Buffer+0.5% β-cyclodextrin (make this prior to use, Sigma #C4767), 8 μM CC2-DMPE+2.5 μM DiSBAC6(3). To make the solution Add volume of 10% Pluronic F127 stock equal to volumes of CC2-DMPE+DiSBAC6(3). The order of preparation is first mix Pluronic and CC2-DMPE, then add DiSBAC6(3) while vortexing, then add Bath1+β-Cyclodextrin.
1) Pre-spot compounds (in neat DMSO) into compound plates. Vehicle control (neat DMSO), the positive control (20 mM DMSO stock tetracaine, 125 μM final in assay) and test compounds are added to each well at 160× desired final concentration in neat DMSO. Final compound plate volume will be 80 μL (80-fold intermediate dilution from 1 μL DMSO spot; 160-fold final dilution after transfer to cell plate). Final DMSO concentration for all wells in assay is 0.625%.
2) Prepare Hexyl Dye Solution.
3) Prepare cell plates. On the day of the assay, medium is aspirated and cells are washed three times with 100 μL of Bath1 Solution, maintaining 25 μL residual volume in each well.
4) Dispense 25 μL per well of Hexyl Dye Solution into cell plates. Incubate for 20-35 minutes at room temp or ambient conditions.
5) Dispense 80 μL per well of Bath1 into compound plates. Acid Yellow-17 (1 mM) is added and Potassium Chloride can be altered from 4.5 to 20 mM depending on the NaV subtype and assay sensitivity.
6) Wash cell plates three times with 100 μL per well of Bath1, leaving 25 μL of residual volume. Then transfer 25 uL per well from Compound Plates to Cell Plates. Incubate for 20-35 minutes at room temp/ambient condition
7) Read Plate on E-VIPR. Use the current-controlled amplifier to deliver stimulation wave pulses for typically 9 seconds and a scan rate of 400 Hz. A pre-stimulus recording is performed for 0.5 seconds to obtain the un-stimulated intensities baseline. The stimulatory waveform is applied for 9 seconds followed by 0.5 seconds of post-stimulation recording to examine the relaxation to the resting state. […]

Chain of human NaV 1.7 (Q15858 whole entry): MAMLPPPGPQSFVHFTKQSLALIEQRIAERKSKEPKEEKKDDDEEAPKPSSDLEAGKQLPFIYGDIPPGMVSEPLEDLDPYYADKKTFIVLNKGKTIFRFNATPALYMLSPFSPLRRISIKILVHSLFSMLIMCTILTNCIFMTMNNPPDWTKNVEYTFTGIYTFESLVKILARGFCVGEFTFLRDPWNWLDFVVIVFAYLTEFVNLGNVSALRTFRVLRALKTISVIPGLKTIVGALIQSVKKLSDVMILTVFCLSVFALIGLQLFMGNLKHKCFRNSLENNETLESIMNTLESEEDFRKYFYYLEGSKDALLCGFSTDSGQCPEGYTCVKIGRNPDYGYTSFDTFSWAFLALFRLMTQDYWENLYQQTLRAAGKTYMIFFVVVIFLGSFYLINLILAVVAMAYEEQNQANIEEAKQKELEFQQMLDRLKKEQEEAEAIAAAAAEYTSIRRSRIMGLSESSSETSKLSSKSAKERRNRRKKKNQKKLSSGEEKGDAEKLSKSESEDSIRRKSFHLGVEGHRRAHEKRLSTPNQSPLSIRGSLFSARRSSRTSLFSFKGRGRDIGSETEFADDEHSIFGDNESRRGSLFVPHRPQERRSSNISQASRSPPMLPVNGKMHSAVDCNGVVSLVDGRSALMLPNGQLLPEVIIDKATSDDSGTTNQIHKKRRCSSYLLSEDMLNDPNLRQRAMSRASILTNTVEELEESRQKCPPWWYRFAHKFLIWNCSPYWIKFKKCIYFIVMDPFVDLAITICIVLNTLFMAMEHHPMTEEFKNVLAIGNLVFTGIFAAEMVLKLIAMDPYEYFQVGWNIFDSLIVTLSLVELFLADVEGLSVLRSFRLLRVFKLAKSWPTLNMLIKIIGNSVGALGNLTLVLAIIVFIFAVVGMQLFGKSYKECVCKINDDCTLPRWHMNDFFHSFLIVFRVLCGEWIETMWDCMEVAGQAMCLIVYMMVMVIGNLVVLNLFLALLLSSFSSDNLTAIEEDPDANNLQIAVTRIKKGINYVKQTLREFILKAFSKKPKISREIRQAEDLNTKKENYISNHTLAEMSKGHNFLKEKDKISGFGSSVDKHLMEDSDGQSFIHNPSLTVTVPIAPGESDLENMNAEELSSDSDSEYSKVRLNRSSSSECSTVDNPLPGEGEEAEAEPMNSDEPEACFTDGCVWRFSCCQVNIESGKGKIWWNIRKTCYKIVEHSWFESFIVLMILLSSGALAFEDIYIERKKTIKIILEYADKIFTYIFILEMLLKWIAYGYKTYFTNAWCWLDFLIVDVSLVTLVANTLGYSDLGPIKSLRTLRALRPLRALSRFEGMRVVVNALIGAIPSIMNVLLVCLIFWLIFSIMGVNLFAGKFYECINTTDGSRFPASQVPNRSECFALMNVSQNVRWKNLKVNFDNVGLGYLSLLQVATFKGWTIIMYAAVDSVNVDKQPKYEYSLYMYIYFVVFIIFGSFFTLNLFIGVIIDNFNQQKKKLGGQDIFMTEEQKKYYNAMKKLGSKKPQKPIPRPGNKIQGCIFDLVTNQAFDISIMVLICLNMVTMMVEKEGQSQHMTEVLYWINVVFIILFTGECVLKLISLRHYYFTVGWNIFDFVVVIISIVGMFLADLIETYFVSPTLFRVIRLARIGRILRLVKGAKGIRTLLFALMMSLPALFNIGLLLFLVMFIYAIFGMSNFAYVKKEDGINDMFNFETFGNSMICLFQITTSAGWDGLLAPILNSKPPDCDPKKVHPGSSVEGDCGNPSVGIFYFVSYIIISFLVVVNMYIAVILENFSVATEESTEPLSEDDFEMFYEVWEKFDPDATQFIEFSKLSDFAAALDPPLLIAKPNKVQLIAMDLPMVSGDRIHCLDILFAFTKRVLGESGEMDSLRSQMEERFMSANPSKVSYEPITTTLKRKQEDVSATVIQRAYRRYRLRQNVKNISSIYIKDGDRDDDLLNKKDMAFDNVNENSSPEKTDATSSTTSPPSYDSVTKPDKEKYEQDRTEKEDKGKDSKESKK

COc1cc(C(=O)N2CCC3(CC2)Oc2cc(F)ccc2-c2c3cnn2C)ccc1OC(C)C [Compound 617]
pIC50: ≥ 5.70

COc1cc(C(=O)N2CCC3(CC2)Oc2cc(F)ccc2-n2cccc23)ccc1C(C)(C)C [Compound 855]
pIC50: ≥ 5.70

Cn1ncc2c1-c1ccccc1OC21CCN(C(=O)c2ccccc2NS(C)(=O)=O)CC1 [Compound 319]
pIC50: 5.30 to 5.70

Cn1ncc2c1-c1ccccc1OC21CCN(C(=O)c2cccc(F)c2OC(F)F)CC1 [Compound 194]
pIC50: ≥ 5.70

Cc1cc(C(=O)N2CCC3(CC2)Oc2ccccc2-n2c(C#N)ccc23)ccc1[C@](C)(O)CO [Compound 54]
pIC50: ≥ 5.70

COc1cc(C(=O)N2CCC3(CC2)Oc2cc(F)ccc2-n2cccc23)ccc1OCC1CCCO1 (stereo not drawn) [Compound 632]
pIC50: ≥ 5.70

CC(c1ccc(C(=O)N2CCC3(CC2)Oc2ccccc2-n2c(C#N)ccc23)cc1)S(C)(=O)=O (stereo not drawn) [Compound 781]
pIC50: 5.30 to 5.70

CCc1ccccc1C(=O)N1CCC2(CC1)Oc1ccccc1-c1c2cnn1C [Compound 546]
pIC50: ≥ 5.70

CC(C)CS(=O)(=O)c1ccc(C(=O)N2CCC3(CC2)Oc2ccccc2-n2c(C(F)(F)F)ccc23)nc1 [Compound 874]
pIC50: ≥ 5.70

Cn1ncc2c1-c1ccccc1OC21CCN(C(=O)c2ccc(O)c(F)c2)CC1 [Compound 856]
pIC50: ≥ 5.70

CC(C)(CO)c1ccc(C(=O)N2CCC3(CC2)Oc2cc(Cl)ccc2-n2cccc23)cc1 [Compound 106]
pIC50: ≥ 5.70

Cc1ccc(C(=O)N2CCC3(CC2)Oc2ccccc2-n2cccc23)cc1Cl [Compound 27]
pIC50: ≥ 5.70

Cn1cc2c(n1)-c1ccccc1OC21CCN(C(=O)c2ccc3nc(N)sc3c2)CC1 [Compound 325]
pIC50: 5.30 to 5.70

CC(C)(C)c1ccc(C(=O)N2CCC3(CC2)Oc2ccccc2-n2c3ccc2S(C)(=O)=O)cc1 [Compound 265]
pIC50: ≥ 5.70

COc1cc(C(=O)N2CCC3(CC2)Oc2ccccc2-n2c(C#N)ccc23)ccc1C(C)(C)CO [Compound 698]
pIC50: ≥ 5.70

COc1ccc2[nH]cc(C(=O)N3CCC4(CC3)Oc3ccccc3-c3c4cnn3C)c2c1 [Compound 14]
pIC50: ≥ 5.70

COc1cc(C(=O)N2CCC3(CC2)Oc2ccccc2-n2cccc23)ccc1OC1CCC(O)C1 (stereo not drawn) [Compound 678]
pIC50: ≥ 5.70

COC(=O)C(C)(C)c1ccc(C(=O)N2CCC3(CC2)Oc2cc(Cl)ccc2-n2cccc23)cc1OC [Compound 723]
pIC50: ≥ 5.70

CC(C)(C)[S@@+]([O-])c1ccc(C(=O)N2CCC3(CC2)Oc2ccccc2-n2c(C(F)(F)F)ccc23)cc1 [Compound 880]
pIC50: 5.30 to 5.70

CC(CO)NS(=O)(=O)c1ccc(C(=O)N2CCC3(CC2)Oc2ccccc2-n2c(C#N)ccc23)cc1 (stereo not drawn) [Compound 49]
pIC50: < 5.30

CC(C)(C)[S+]([O-])c1ccc(C(=O)N2CCC3(CC2)Oc2ccccc2-n2c(C(F)(F)F)ccc23)cc1 (stereo not drawn) [Compound 882]
pIC50: 5.30 to 5.70

Cc1cc(C(=O)N2CCC3(CC2)Oc2ccccc2-n2c(C#N)ccc23)ccc1S(C)(=O)=O [Compound 509]
pIC50: ≥ 5.70

COc1cc(C(=O)N2CCC3(CC2)Oc2ccccc2-c2c3cnn2C)ccc1OC(C)(C)C [Compound 313]
pIC50: ≥ 5.70

CC(C)(O)c1ccc(C(=O)N2CCC3(CC2)Oc2ccccc2-n2c3ccc2S(C)(=O)=O)cc1 [Compound 607]
pIC50: 5.30 to 5.70

CC[C@@H](C)Oc1ccc(C(=O)N2CCC3(CC2)Oc2ccccc2-n2cccc23)cc1C#N [Compound 145]
pIC50: ≥ 5.70

CCCCc1nc2cc(C(=O)N3CCC4(CC3)Oc3ccccc3-n3c(C(F)(F)F)ccc34)ccc2o1 [Compound 198]
pIC50: ≥ 5.70

CC(C)CCOc1ccc(C(=O)N2CCC3(CC2)Oc2ccccc2-c2c3cnn2C)cc1 [Compound 174]
pIC50: ≥ 5.70

C[C@](O)(CO)c1ccc(C(=O)N2CCC3(CC2)Oc2ccccc2-n2c(C#N)ccc23)cc1 [Compound 571]
pIC50: ≥ 5.70

Cn1ncc2c1-c1ccccc1OC21CCN(C(=O)c2cccc3c2CCO3)CC1 [Compound 160]
pIC50: < 5.30

COc1ccc(C(=O)N2CCC3(CC2)Oc2ccccc2-n2c(C#N)ccc23)cc1C(F)(F)F [Compound 826]
pIC50: ≥ 5.70

Reference: patent publication US9365588B2, “Benzoxazines as modulators of ion channels” (Vertex Pharmaceuticals Incorporated, priority 2011, dated 2016)
